Molecular target: T1, JAK3 (recombinant human kinase domain; h-jak3(810-1124)) (Homo sapiens, UniProt P52333)
T1 construct: h-jak3(810- 1124)-sf9-c; made in house; host or cells: Sf9 insect cells
Assay: Determination of IC50 of Janus Kinase (JAK) inhibition: JAK3, radioactive end-point assay with 33P-ATP
Format: biochemical
Details: JAK3 kinase domain; ATP 1.5 uM, peptide 50 uM, 20 minutes, room temperature, 10% DMSO; read-out: Ic50 h-jak3(810-1124)-sf9-c:no additive
Description: Determination of IC50 of Janus Kinase (JAK) Inhibition:
Enzymes and peptide substrate used are described below: • JAK1: Recombinant human kinase domain from Invitrogen (Cat # PV4774) • JAK3: Recombinant human kinase domain from Millipore (Cat #14-629) or prepared. • JAK2: Recombinant human kinase domain from Millipore (Cat #14-640) • Substrate: N-terminally biotinylated 14-mer peptide derived from activation loop of JAK1 with sequence of the peptide substrate: Biotin-[sequence]
Assay Conditions Used are Described Below: • Assay Buffer: JAK Kinase Buffer: 50 mM Hepes [pH 7.2], 10 mM MgCl2, 1 mM DTT, • 1 mg/ml BSA. The assay is carried out in this buffer. • Assay Format The kinase activity of all three JAK kinases is measured using a radioactive, end-point assay and with trace amounts of ^33P-ATP. The assays are carried out in 96-well polypropylene plates.
All concentrations are final in the reaction mixture and all incubations are carried at room temperature. […] Final concentration of DMSO in the reaction is 10%. • 2) Compounds are preincubated with enzyme (0.5 nM JAK3 (commercially available), 0.2 nM JAK3 (prepared), 1 nM JAK2, 5 nM JAK1) for 10 minutes. • 3) Reactions are initiated by the addition of a cocktail of the two substrates (ATP and peptide premixed in the JAK Kinase Buffer). In the JAK2/JAK3 assays, ATP and the peptide are used at concentrations of 1.5 uM and 50 uM, respectively. JAK1 assay is carried out at an ATP concentration of 10 uM and a peptide concentration of 50 uM. • 4) The duration of the assay for JAK2 and JAK3 is 20 minutes. JAK1 assay is carried out for 40 minutes. With all three enzymes, reactions are terminated by the addition of 0.5M EDTA to a final concentration of 100 mM. • 5) 25 ul of terminated reactions are transferred to 150 ul of a 7.5% (v/v) slurry of streptavidin-coated sepharose beads in MgCl2- and CaCl2-free 1× Phosphate Buffered Saline containing 50 mM of EDTA in 96-well, 1.2 um MultiScreen-BV filter plates. • 6) After a 30-minute incubation, the beads are washed under vacuum with the following buffers: • a. 3 to 4 washes with 200 ul of 2M NaCl. • b. 3 to 4 washes with 200 ul of 2M NaCl plus 1% (v/v) phosphoric acid. • c. 1 wash with water. • 7) Washed plates are dried in a 60° C. oven for between 1 to 2 hours. • 8) 70 ul of Microscint 20 scintillation fluid is added to each well of filter plates and after at least 30 minutes of incubation, radioactive counts are measured in a Perkin-Elmer microplate scintillation counter.

T1 sequence (P52333 810-1124): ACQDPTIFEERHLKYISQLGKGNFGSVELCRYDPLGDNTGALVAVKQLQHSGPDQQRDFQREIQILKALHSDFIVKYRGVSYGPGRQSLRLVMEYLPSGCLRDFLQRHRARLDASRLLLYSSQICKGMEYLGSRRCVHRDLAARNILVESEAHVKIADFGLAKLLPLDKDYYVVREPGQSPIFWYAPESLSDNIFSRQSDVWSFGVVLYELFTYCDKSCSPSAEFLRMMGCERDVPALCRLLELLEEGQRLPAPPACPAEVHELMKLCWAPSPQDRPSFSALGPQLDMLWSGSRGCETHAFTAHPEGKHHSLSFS

IC50 | SMILES
0.24 nM | Cc1cc(-c2cnc3[nH]cc(C(=O)N[C@@H](C)C(C)(C)C)c3n2)sc1C(=O)NC1CCOCC1 [Example I-219, 2-[4-Methyl-5-(tetrahydro-pyran-4-ylcarbamoyl)-thiophen-2-yl]-5H-pyrrolo[2,3-b]pyrazine-7-carboxylic acid ((S)-1,2,2-trimethyl-propyl)-amide]
533 nM | CC(C)NC(=O)c1c[nH]c2ncc(Oc3ccc4c(c3)[C@@H](N)CC4)nc12 [Example I-289, 2-((S)-3-Amino-indan-5-yloxy)-5H-pyrrolo[2,3-b]pyrazine-7-carboxylic acid isopropylamide]
5.46 nM | C[C@H](NC(=O)c1c[nH]c2ncc(C3CC3)nc12)C(C)(C)C(F)(F)F [Example I-54, 2-Cyclopropyl-5H-pyrrolo[2,3-b]pyrazine-7-carboxylic acid ((S)-3,3,3-trifluoro-1,2,2-trimethyl-propyl)-amide]
470 nM | CCNC(=O)c1c[nH]c2ncc(Oc3ccc4cc[nH]c4c3)nc12 [Example I-273, 2-(1H-Indol-6-yloxy)-5H-pyrrolo[2,3-b]pyrazine-7-carboxylic acid ethylamide]
91.7 nM | CNC(=O)N[C@@H]1CCc2ccc(Oc3cnc4[nH]cc(C(=O)NC(C)C)c4n3)cc21 [Example I-292, 2-[(R)-3-(3-Methyl-ureido)-indan-5-yloxy]-5H-pyrrolo[2,3-b]pyrazine-7-carboxylic acid isopropylamide]
13.4 nM | CC(C)C(C#N)NC(=O)c1c[nH]c2ncc(C3CC3)nc12 (stereo not shown) [Example I-89, 2-Cyclopropyl-5H-pyrrolo[2,3-b]pyrazine-7-carboxylic acid (1-cyano-2-methyl-propyl)-amide]
12.2 nM | C=C(C)c1cnc2[nH]cc(C(=O)N[C@@H](C)C(C)(C)O)c2n1 [Example I-3, 2-Isopropenyl-5H-pyrrolo[2,3-b]pyrazine-7-carboxylic acid ((S)-2-hydroxy-1,2-dimethyl-propyl)-amide]
302 nM | CCc1cnc2[nH]cc(C(=O)NCC(C)(C)CO)c2n1 [Example I-39, 2-Ethyl-5H-pyrrolo[2,3-b]pyrazine-7-carboxylic acid (3-hydroxy-2,2-dimethyl-propyl)-amide]
3.4 nM | C[C@H](NC(=O)c1c[nH]c2ncc(C3CC3)nc12)C(C)(C)CS(C)(=O)=O [Example I-144, 2-Cyclopropyl-5H-pyrrolo[2,3-b]pyrazine-7-carboxylic acid ((S)-3-methanesulfonyl-1,2,2-trimethyl-propyl)-amide]
453 nM | CCCC[C@H](NC(=O)c1c[nH]c2ncc(C3CC3)nc12)C(C)(C)O [Example I-49, 2-Cyclopropyl-5H-pyrrolo[2,3-b]pyrazine-7-carboxylic acid [(S)-1-(1-hydroxy-1-methyl-ethyl)-pentyl]-amide]
4.51 nM | C[C@H](NC(=O)c1c[nH]c2ncc(C3=CCCCC3)nc12)C(C)(C)O [Example I-7, 2-Cyclohex-1-enyl-5H-pyrrolo[2,3-b]pyrazine-7-carboxylic acid ((S)-2-hydroxy-1,2-dimethyl-propyl)-amide]
502 nM | C[C@H](NC(=O)c1c[nH]c2ncc(Oc3ccc(F)cc3F)nc12)C(C)(C)O [Example I-125, 2-(2,4-Difluoro-phenoxy)-5H-pyrrolo[2,3-b]pyrazine-7-carboxylic acid ((S)-2-hydroxy-1,2-dimethyl-propyl)-amide]
0.41 nM | C[C@H](NC(=O)c1c[nH]c2ncc(-c3ccc(C(=O)NCc4c(F)cccc4F)s3)nc12)C(C)(C)C [Example I-188, 2-[5-(2,6-Difluoro-benzylcarbamoyl)-thiophen-2-yl]-5H-pyrrolo[2,3-b]pyrazine-7-carboxylic acid ((S)-1,2,2-trimethyl-propyl)-amide]
143 nM | CC(C)NC(=O)c1c[nH]c2ncc(Oc3ccc4c(c3)[C@H](NC(N)=O)CC4)nc12 [Example I-299, 2-((R)-3-Ureido-indan-5-yloxy)-5H-pyrrolo[2,3-b]pyrazine-7-carboxylic acid isopropylamide]
1100 nM | CCNC(=O)c1c[nH]c2ncc(Oc3ccccc3Cl)nc12 [Example I-265, 2-(2-Chloro-phenoxy)-5H-pyrrolo[2,3-b]pyrazine-7-carboxylic acid ethylamide]
0.73 nM | C[C@H](NC(=O)c1c[nH]c2ncc(-c3ccc(C(=O)NCc4cccc(C(F)(F)F)c4)s3)nc12)C(C)(C)C [Example I-207, 2-[5-(3-Trifluoromethyl-benzylcarbamoyl)-thiophen-2-yl]-5H-pyrrolo[2,3-b]pyrazine-7-carboxylic acid ((S)-1,2,2-trimethyl-propyl)-amide]
0.11 nM | C[C@H](NC(=O)c1c[nH]c2ncc(-c3ccc(C(=O)N4CCS(=O)(=O)CC4)s3)nc12)C(C)(C)C [Example I-213, 2-[5-(1,1-Dioxo-1λ^6-thiomorpholine-4-carbonyl)-thiophen-2-yl]-5H-pyrrolo[2,3-b]pyrazine-7-carboxylic acid ((S)-1,2,2-trimethyl-propyl)-amide]

IC50 | SMILES
0.32 nM | CCNC(=O)c1ccc(-c2cnc3[nH]cc(C(=O)N[C@@H](C)C(C)(C)C)c3n2)s1 [Example I-155, 2-(5-Ethylcarbamoyl-thiophen-2-yl)-5H-pyrrolo[2,3-b]pyrazine-7-carboxylic acid ((S)-1,2,2-trimethyl-propyl)-amide]
0.2 nM | C[C@H](NC(=O)c1c[nH]c2ncc(-c3ccc(C(=O)NCCS(N)(=O)=O)s3)nc12)C(C)(C)C [Example I-173, 2-[5-(2-Sulfamoyl-ethylcarbamoyl)-thiophen-2-yl]-5H-pyrrolo[2,3-b]pyrazine-7-carboxylic acid ((S)-1,2,2-trimethyl-propyl)-amide]
659 nM | C[C@@H](NC(=O)c1c[nH]c2ncc(Oc3ccccc3)nc12)C(C)(C)C [Example I-130, 2-Phenoxy-5H-pyrrolo[2,3-b]pyrazine-7-carboxylic acid ((R)-1,2,2-trimethyl-propyl)-amide]
0.4 nM | COc1ccccc1CNC(=O)c1ccc(-c2cnc3[nH]cc(C(=O)N[C@@H](C)C(C)(C)C)c3n2)s1 [Example I-203, 2-[5-(2-Methoxy-benzylcarbamoyl)-thiophen-2-yl]-5H-pyrrolo[2,3-b]pyrazine-7-carboxylic acid ((S)-1,2,2-trimethyl-propyl)-amide]
45.4 nM | C[C@@H](NC(=O)c1c[nH]c2ncc(C3=CCOCC3)nc12)C(C)(C)O [Example I-110, 2-(3,6-Dihydro-2H-pyran-4-yl)-5H-pyrrolo[2,3-b]pyrazine-7-carboxylic acid ((R)-2-hydroxy-1,2-dimethyl-propyl)-amide]
2990 nM | CC(C)NC(=O)c1c[nH]c2ncc(Oc3cccc4c3OC(C)(C)C4)nc12 [Example I-254, 2-(2,2-Dimethyl-2,3-dihydro-benzofuran-7-yloxy)-5H-pyrrolo[2,3-b]pyrazine-7-carboxylic acid isopropylamide]
0.14 nM | C[C@H](NC(=O)c1c[nH]c2ncc(-c3ccc(C(=O)NCC#N)s3)nc12)C(C)(C)C [Example I-172, 2-[5-(Cyanomethyl-carbamoyl)-thiophen-2-yl]-5H-pyrrolo[2,3-b]pyrazine-7-carboxylic acid ((S)-1,2,2-trimethyl-propyl)-amide]
33.6 nM | C=Cc1cnc2[nH]cc(C(=O)NCC(C)(C)CO)c2n1 [Example I-36, 2-Vinyl-5H-pyrrolo[2,3-b]pyrazine-7-carboxylic acid (3-hydroxy-2,2-dimethyl-propyl)-amide]
190 nM | CC[C@@H](C)NC(=O)c1c[nH]c2ncc(Oc3ccc(F)cc3F)nc12 [Example I-126, 2-(2,4-Difluoro-phenoxy)-5H-pyrrolo[2,3-b]pyrazine-7-carboxylic acid ((R)-sec-butyl)-amide]
0.47 nM | CON(C)C(=O)c1ccc(-c2cnc3[nH]cc(C(=O)N[C@@H](C)C(C)(C)C)c3n2)s1 [Example I-196, 2-[5-(Methoxy-methyl-carbamoyl)-thiophen-2-yl]-5H-pyrrolo[2,3-b]pyrazine-7-carboxylic acid ((S)-1,2,2-trimethyl-propyl)-amide]
14.7 nM | N#CCC(NC(=O)c1c[nH]c2ncc(C3CC3)nc12)C1CC1 (stereo not shown) [Example I-106, 2-Cyclopropyl-5H-pyrrolo[2,3-b]pyrazine-7-carboxylic acid (2-cyano-1-cyclopropyl-ethyl)-amide]
0.32 nM | C[C@H](NC(=O)c1c[nH]c2ncc(-c3ccc(C(=O)N4CC(C(N)=O)C4)s3)nc12)C(C)(C)C [Example I-179, 2-[5-(3-Carbamoyl-azetidine-1-carbonyl)-thiophen-2-yl]-5H-pyrrolo[2,3-b]pyrazine-7-carboxylic acid ((S)-1,2,2-trimethyl-propyl)-amide]
10.3 nM | C[C@@H](NC(=O)c1c[nH]c2ncc(-c3cnn(C)c3)nc12)C(C)(C)O [Example I-102, 2-(1-Methyl-1H-pyrazol-4-yl)-5H-pyrrolo[2,3-b]pyrazine-7-carboxylic acid ((R)-2-hydroxy-1,2-dimethyl-propyl)-amide]
150 nM | C[C@H](NC(=O)c1c[nH]c2ncc(C3CC3)nc12)C1(C#N)CCCCC1 [Example I-118, 2-Cyclopropyl-5H-pyrrolo[2,3-b]pyrazine-7-carboxylic acid [(S)-1-(1-cyano-cyclohexyl)-ethyl]-amide]
0.46 nM | CC(Cc1ccccn1)NC(=O)c1ccc(-c2cnc3[nH]cc(C(=O)N[C@@H](C)C(C)(C)C)c3n2)s1 (stereo partly drawn) [Example I-176, 2-[5-(1-Methyl-2-pyridin-2-yl-ethylcarbamoyl)-thiophen-2-yl]-5H-pyrrolo[2,3-b]pyrazine-7-carboxylic acid ((S)-1,2,2-trimethyl-propyl)-amide]
86.2 nM | C[C@@H](NC(=O)c1c[nH]c2ncc(-c3ccccn3)nc12)C(C)(C)O [Example I-112, 2-Pyridin-2-yl-5H-pyrrolo[2,3-b]pyrazine-7-carboxylic acid ((R)-2-hydroxy-1,2-dimethyl-propyl)-amide]
231 nM | CS(=O)(=O)N1CCC(CNC(=O)c2c[nH]c3ncc(C4CC4)nc23)C1 (stereo not shown) [Example I-109, 2-Cyclopropyl-5H-pyrrolo[2,3-b]pyrazine-7-carboxylic acid (1-methanesulfonyl-pyrrolidin-3-ylmethyl)-amide]
